# Experimental data published in patent publication EP0184990A1, “Alkylidenedioxy compounds” (CIBA-GEIGY AG, priority 1984, dated 1986).
# Read-outs that look alike come from different tables or passages of the source.
# What was measured:
# [1] = Maximum tolerated dose in mice after single administration; parameters: species or system Mäusen; details: mouse, in vivo, 7-day observation, read-out: maximal tolerierte Dosis
# Description: Die pharmakologische Wirksamkeit der Verbindungen der vorliegenden Erfindung ist begleitet von einer guten Verträglichkeit. So liegt die maximal tolerierte Dosis für das obengenannte 6,6-Dimethyl-4,5-dihydro-6H-(1,3-dioxolo)r3,41naphthor1,2-blpyran in Mäusen nach einmaliger p.o- und i.p.-Verabreichung und anschliessender 7-tägiger Beobachtungsdauer über 2500 mg/kg bzw. über 1250 mg/kg.
# [2] = test system: Rauscher-Leukämie-Virus (RLV, ein RNS-Tumorvirus); assay: Rauscher leukaemia virus infection in mice, survival time; assay type: in vivo, weibliche Balb/c-Mäuse; details: 20 p.o. administrations of 125 mg/kg each, female Balb/c mice infected with Rauscher leukaemia virus; controls 31,7 Tage (p < 0,001 Cox-Test)
# Source text: Die Wirkung auf Virusinfektionen kann anhand von in vivo-Testanordnungen festgestellt werden. So besitzen Verbindungen der Formel I in Tierexperimenten bei gewissen neoplastischen Krankheiten, die durch RNS-Tumorviren hervorgerufen werden, oder bei denen RNS-Tumorviren nachweisbar sind, eine starke Wirksamkeit. Sie verlängern z.B. die mittlere Ueberlebensdauer von Mäusen nach Infektion mit Rauscher-Leukämie-Virus (RLV, ein RNS-Tumorvirus).
# Bei den Versuchen mit Rauscher-Leukämie 4 Q (NIH) werden weibliche Balb/c-Mäuse (28 bis 34 Tage alt) mit 0,2 ml einer zehnfach mit Hanks Lösung verdünnten Virussuspension aus Milzmaterial von 4-6 Wochen vorher infizierten Mäusen infiziert. […] Die erste Verabreichung erfolgt 30 Minuten vor der Infektion, weitere Verabreichungen täglich einmal und fünfmal in der Woche während 4 Wochen. Als Kriterium für die Wirkung dient die Verlängerung der Ueberlebenszeit. Während bei den Kontrolltieren ab 30 Tagen nach der Infektion eine Leukämie mit leukämischen Blutzellen von über 50000/mm^3 gefunden werden können und die Tiere zu sterben beginnen, wird die Ueberlebenszeit der mit 125 mg/kg p.o. der Testsubstanz behandelten weiblichen Mäuse signifikant verlängert. […]
smiles,measurement,setting,value
"CC1(C)CCc2c3c(c4ccccc4c2O1)OCO3 [Beispiel 1, 6,6-Dimethyl-4,5-dihydro-6H-(1,3-dioxolo)f3,41-naphthof1,2-blpyran]",MTD at 168 h,"[1]; ip, single i.p. administration",> 1250 mg/kg
same,MTD at 168 h,"[1]; po, single p.o. administration",> 2500 mg/kg
same,Ueberlebenszeit,[2],"60,9 Tage"
